# Measured values reported in patent publication US20240116910A1, “Heterocycles as WIP1 Inhibitors” (PMV Pharmaceuticals, Inc., priority 2022, published 2024).
# Biological target: recombinant His-tag Wip1(2-420) protein (amino acids #2-420) (Homo sapiens (Human), UniProt O15297)
# Assay: Wip1(2-420) phosphatase enzyme FDP assay
# Type: biochemical
# Details: fluorescein diphosphate (FDP) substrate, RT 2 hours, fluorescence Ex485/Em535; read-out: WIP1 (Truncated 2-420) FDP Assay: IC50
# Sequence of recombinant His-tag Wip1(2-420) protein (amino acids #2-420) (O15297 2-420): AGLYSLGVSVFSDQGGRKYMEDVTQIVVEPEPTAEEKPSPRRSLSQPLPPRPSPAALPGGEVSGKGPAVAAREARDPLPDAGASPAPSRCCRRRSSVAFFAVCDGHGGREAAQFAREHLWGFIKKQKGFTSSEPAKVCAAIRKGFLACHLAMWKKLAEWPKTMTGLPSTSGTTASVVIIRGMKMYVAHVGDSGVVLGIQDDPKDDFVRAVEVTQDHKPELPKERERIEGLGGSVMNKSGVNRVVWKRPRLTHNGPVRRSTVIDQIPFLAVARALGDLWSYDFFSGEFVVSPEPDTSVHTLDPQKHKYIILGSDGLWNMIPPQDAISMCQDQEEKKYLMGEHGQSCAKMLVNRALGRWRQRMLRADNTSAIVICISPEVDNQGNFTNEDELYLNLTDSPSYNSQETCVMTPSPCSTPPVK
row,Structure (SMILES),IC50
1,"Cc1ncc(Cl)cc1N[C@@H](C)c1ccc(C(=O)N[C@@H](CC2CCCCC2)C(=O)Nc2ccc(F)cc2)s1 [Compound 112, (2S)-2-({5-[(1S)-1-[(5-chloro-2-methylpyridin-3-yl)amino]ethyl]thiophen-2-yl}formamido)-3-cyclohexyl-N-(4-fluorophenyl)propanamide]",4 nM
2,"Cc1ncc(Cl)cc1N[C@@H](C)c1ccc(C(=O)N[C@@H](CC2CCCC2)C(=O)N[C@H]2C[C@@H](C#N)C2)s1 [Compound 221, (2S)-2-({5-[(1S)-1-[(5-chloro-2-methylpyridin-3-yl)amino]ethyl]thiophen-2-yl}formamido)-3-cyclopentyl-N-[(1s,3s)-3-cyanocyclobutyl]propanamide]",6 nM
3,"Cc1ncc(Cl)cc1N[C@@H](C)c1ccc(C(=O)N[C@@H](CC2CCCC2)C(=O)Nc2ccnc(C(N)=O)c2)s1 [Compound 135, 4-[(2S)-2-({5-[(1S)-1-[(5-chloro-2-methylpyridin-3-yl)amino]ethyl]thiophen-2-yl}formamido)-3-cyclopentylpropanamido]pyridine-2-carboxamide]",5 nM
4,"Cc1ncc(Cl)cc1N[C@@H](Cc1ccc(F)cc1)c1ccc(C(=O)N[C@@H](CC2CCCC2)C(=O)NC2CC2)s1 [Compound 223, (2S)-2-({5-[(1S)-1-[(5-chloro-2-methylpyridin-3-yl)amino]-2-(4-fluorophenyl)ethyl]thiophen-2-yl}formamido)-3-cyclopentyl-N-cyclopropylpropanamide]",11 nM
5,"CNC(=O)[C@H](CC1CCCCC1)NC(=O)c1ccc([C@H](C)Nc2cc(Cl)cnc2C)s1 [Compound 265, (2S)-2-({5-[(1S)-1-[(5-chloro-2-methylpyridin-3-yl)amino]ethyl]thiophen-2-yl}formamido)-3-cyclohexyl-N-methylpropanamide]",8 nM
6,"Cc1ncc(Cl)cc1NC(CC1CCN(C)CC1)c1ccc(C(=O)N[C@@H](CC2CCCC2)C(=O)NC2CC2)s1 (stereo partly drawn) [Compound 131, (2S)-2-[(5-{1-[(5-chloro-2-methylpyridin-3-yl)amino]-2-(1-methylpiperidin-4-yl)ethyl}thiophen-2-yl)formamido]-3-cyclopentyl-N-cyclopropylpropanamide]",80 nM
7,"Cc1ncc(Cl)cc1N[C@@H](C)c1ccc(C(=O)N[C@@H](CC2CCCC2)C(=O)Nc2ccc3cnccc3c2)s1 [Compound 195, (2S)-2-({5-[(1S)-1-[(5-chloro-2-methylpyridin-3-yl)amino]ethyl]thiophen-2-yl}formamido)-3-cyclopentyl-N-(isoquinolin-6-yl)propanamide]",3 nM
8,"Cc1ncc(Cl)cc1N[C@@H](C)c1ccc(C(=O)N[C@@H](CC2CCC3CC32)C(=O)NC2CC2)s1 (stereo in doubt) [Compound 273, (2S)-3-[(2S)-bicyclo[3.1.0]hexan-2-yl]-2-({5-[(1S)-1-[(5-chloro-2-methylpyridin-3-yl)amino]ethyl]thiophen-2-yl}formamido)-N-cyclopropylpropanamide]",7 nM
9,"C[C@H](Nc1cc(Cl)cnc1C(=O)O)c1ccc(C(=O)N[C@@H](CC2CCCC2)C(=O)NC2CC2)s1 [Compound 269, 5-chloro-3-{[(1S)-1-(5-{[(1S)-2-cyclopentyl-1-(cyclopropylcarbamoyl)ethyl]carbamoyl}thiophen-2-yl)ethyl]amino}pyridine-2-carboxylic acid]",14 nM
10,"C[C@H](Nc1cc(Cl)nc2ccnn12)c1ccc(C(=O)N[C@@H](CC2CCCC2)C(=O)NC2CC2)s1 [Compound 260, (2S)-2-({5-[(1S)-1-({5-chloropyrazolo[1,5-a]pyrimidin-7-yl}amino)ethyl]thiophen-2-yl}formamido)-3-cyclopentyl-N-cyclopropylpropanamide]",210 nM
11,"Cc1ncc(Cl)cc1NC(Cc1cnn(C)c1)c1ccc(C(=O)N[C@@H](CC2CCCC2)C(=O)NC2CC2)s1 (stereo partly drawn) [Compound 188, (2S)-2-[(5-{1-[(5-chloro-2-methylpyridin-3-yl)amino]-2-(1-methyl-1H-pyrazol-4-yl)ethyl}thiophen-2-yl)formamido]-3-cyclopentyl-N-cyclopropylpropanamide]",11 nM
12,"C[C@H](Nc1cc(Cl)cnc1C(N)=O)c1ccc(C(=O)N[C@@H](CC2CCCC2)C(=O)NC23CC(C2)C3)s1 [Compound 133, 3-{[(1S)-1-(5-{[(1S)-1-({bicyclo[1.1.1]pentan-1-yl}carbamoyl)-2-cyclopentylethyl]carbamoyl}thiophen-2-yl)ethyl]amino}-5-chloropyridine-2-carboxamide]",4 nM
13,"C[C@H](c1ccc(C(=O)N[C@@H](CC2CCCC2)C(=O)NC2CC2)s1)N1CCCc2ccc(Cl)cc21 [Compound 249, (2S)-2-({5-[(1R)-1-(7-chloro-1,2,3,4-tetrahydroquinolin-1-yl)ethyl]thiophen-2-yl}formamido)-3-cyclopentyl-N-cyclopropylpropanamide]",156 nM
14,"Cc1ncc(Cl)cc1N[C@@H](C)c1ccc(C(=O)N[C@@H](CC2CCCC2)C(=O)NC2CCC2C)s1 (stereo partly drawn) [Compound 88, (2S)-2-({5-[(1S)-1-[(5-chloro-2-methylpyridin-3-yl)amino]ethyl]thiophen-2-yl}formamido)-3-cyclopentyl-N-(2-methylcyclobutyl)propanamide]",6 nM
15,"Cc1ncc(Cl)cc1N[C@@H](C)c1ccc(C(=O)N[C@@H](CCC(C)C)C(=O)NC2CC2)s1 [Compound 217, (2S)-2-({5-[(1S)-1-[(5-chloro-2-methylpyridin-3-yl)amino]ethyl]thiophen-2-yl}formamido)-N-cyclopropyl-5-methylhexanamide]",27 nM
16,"Cc1ncc(Cl)cc1N[C@@H](C)c1ccc(C(=O)N[C@@H](CC2CC3CC3C2)C(=O)NC2CC2)s1 (stereo partly drawn) [Compound 201, (2S)-3-{bicyclo[3.1.0]hexan-3-yl}-2-({5-[(1S)-1-[(5-chloro-2-methylpyridin-3-yl)amino]ethyl]thiophen-2-yl}formamido)-N-cyclopropylpropanamide]",7 nM
17,"Cc1ncc(Cl)cc1N[C@@H](C)c1ccc(C(=O)N[C@H](CC23CCC(CC2)CC3)C(=O)NC2CC2)s1 [Compound 255, (2R)-3-{bicyclo[2.2.2]octan-1-yl}-2-({5-[(1S)-1-[(5-chloro-2-methylpyridin-3-yl)amino]ethyl]thiophen-2-yl}formamido)-N-cyclopropylpropanamide]",4870 nM
18,"Cc1ncc(Cl)cc1N[C@@H](C)c1ccc(C(=O)N[C@@H](C[C@H]2CCC3CC32)C(=O)NC23CC(C2)C3)s1 (stereo partly drawn) [Compound 244, (2S)-N-{bicyclo[1.1.1]pentan-1-yl}-3-[(2R)-bicyclo[3.1.0]hexan-2-yl]-2-({5-[(1S)-1-[(5-chloro-2-methylpyridin-3-yl)amino]ethyl]thiophen-2-yl}formamido)propanamide]",5 nM

# Continued by falling IC50, values first:
row,IC50,Structure (SMILES)
1,330 nM,"COc1ccccc1-c1ncc(Cl)cc1N[C@H](C)c1ccc(C(=O)N[C@@H](CC2CCCC2)C(=O)NC2CC2)s1 [Compound 241, (2S)-2-({5-[(1R)-1-{[5-chloro-2-(2-methoxyphenyl)pyridin-3-yl]amino}ethyl]thiophen-2-yl}formamido)-3-cyclopentyl-N-cyclopropylpropanamide]"
2,188 nM,"COc1ccc(-c2ncc(Cl)cc2N[C@H](C)c2ccc(C(=O)N[C@@H](CC3CCCC3)C(=O)NC3CC3)s2)cc1 [Compound 238, (2S)-2-({5-[(1R)-1-{[5-chloro-2-(4-methoxyphenyl)pyridin-3-yl]amino}ethyl]thiophen-2-yl}formamido)-3-cyclopentyl-N-cyclopropylpropanamide]"
3,37 nM,"Cc1ncc(Cl)cc1N[C@H](c1ccc(C(=O)N[C@@H](CC2CCCC2)C(=O)NC23CC(C2)C3)s1)C(F)(F)F [Compound 187, (2S)-N-{bicyclo[1.1.1]pentan-1-yl}-2-({5-[(1S)-1-[(5-chloro-2-methylpyridin-3-yl)amino]-2,2,2-trifluoroethyl]thiophen-2-yl}formamido)-3-cyclopentylpropanamide]"
4,20 nM,"CC(Nc1cc(Cl)ccc1C(C)(C)O)c1ccc(C(=O)N[C@@H](CC2CCCC2)C(=O)NC2CC2)s1 (stereo partly drawn) [Compound 229, (2S)-2-{[5-(1-{[5-chloro-2-(2-hydroxypropan-2-yl)phenyl]amino}ethyl)thiophen-2-yl]formamido}-3-cyclopentyl-N-cyclopropylpropanamide]"
5,19 nM,"Cc1ncc(Cl)cc1N[C@@H](C)c1ccc(C(=O)N[C@@H](CC2CCCC2)C(N)=O)s1 [Compound 138, (2S)-2-({5-[(1S)-1-[(5-chloro-2-methylpyridin-3-yl)amino]ethyl]thiophen-2-yl}formamido)-3-cyclopentylpropanamide]"
6,10 nM,"C[C@H](Nc1cc(Cl)cnc1C(F)(F)F)c1ccc(C(=O)N[C@@H](CC2CCCC2)C(=O)NC2CC2)s1 [Compound 189, (2S)-2-({5-[(1S)-1-{[5-chloro-2-(trifluoromethyl)pyridin-3-yl]amino}ethyl]thiophen-2-yl}formamido)-3-cyclopentyl-N-cyclopropylpropanamide]"
7,10 nM,"COC(=O)c1ncc(Cl)cc1N[C@@H](C)c1ccc(C(=O)N[C@@H](CC2CCCC2)C(=O)NC2CC2)s1 [Compound 102, methyl 5-chloro-3-{[(1S)-1-(5-{[(1S)-2-cyclopentyl-1-(cyclopropylcarbamoyl)ethyl]carbamoyl}thiophen-2-yl)ethyl]amino}pyridine-2-carboxylate]"
8,10 nM,"Cc1ncc(Cl)cc1N[C@@H](C)c1ccc(C(=O)N[C@@H](CC2CCC3CC32)C(=O)NC2CC2)s1 (stereo partly drawn) [Compound 92, (2S)-3-{bicyclo[3.1.0]hexan-2-yl}-2-({5-[(1S)-1-[(5-chloro-2-methylpyridin-3-yl)amino]ethyl]thiophen-2-yl}formamido)-N-cyclopropylpropanamide]"
9,5 nM,"C[C@H](Nc1cc(Cl)cnc1C(N)=O)c1ccc(C(=O)N[C@@H](CC2CCCC2)C(=O)Nc2cnn(C)c2)s1 [Compound 136, 5-chloro-3-{[(1S)-1-(5-{[(1S)-2-cyclopentyl-1-[(1-methyl-1H-pyrazol-4-yl)carbamoyl]ethyl]carbamoyl}thiophen-2-yl)ethyl]amino}pyridine-2-carboxamide]"
